ChEMBL document CHEMBL1152348, “Discovery of 3-aryl-5-aryl-1,2,4-oxadiazoles as a new series of apoptosis inducers. 2. Identification of more aqueous soluble analogs as potential anticancer agents” (Bioorg Med Chem Lett, 2009)
≈ marks a conversion by molar mass, not a printed value. Calls of active or inactive are those of the source. The rule behind the calls is not given here.

Key:
[1] = system: T47D; experiment: Induction of apoptosis in human T47D cells assessed as caspase activation after 48 hrs; type: functional, cell-based
[2] = system: NCI-H1299; experiment: Induction of apoptosis in human H1299 cells assessed as caspase activation after 48 hrs; type: functional, cell-based; settings: NCI-H1299, 48 h
[3] = system: DLD-1; experiment: Induction of apoptosis in human DLD1 cells assessed as caspase activation after 48 hrs; type: functional, cell-based; settings: DLD-1, 48 h
[4] = system: T47D; experiment: Growth inhibition of human T47D cells after 48 hrs; type: functional
[5] = Growth inhibition of human H1299 cells after 48 hrs; type: functional; settings: NCI-H1299, 48 h
[6] = Aqueous solubility in dextrose 5% in water; type: physicochemical
[7] = Solubility in ethanol/cremophor EL/D5W solution; type: physicochemical
[8] = system: Mus musculus; experiment: Toxicity in Crl:Nu/Nu-nuBR mouse assessed as decrease of body weight at 20 mg/kg, iv daily once for day 1 to 5 and 8 to 12; type: organism-based; parameters: dose 20 mg/kg, route intravenous; scale not given: the % may be the effect or the level left; settings: in vivo
[9] = system: MX1; experiment: Antitumor activity against human MX1 cells xenografted in Crl:Nu/Nu-nuBR mouse assessed as inhibition of tumor growth at 20 mg/kg, iv daily once for day 1 to 5 and 8 to 12; type: functional, organism-based; parameters: dose 20 mg/kg
[10] = Solubility in DMSO/ethanol/cremophor EL/D5W solution; type: physicochemical

EC50 [1] | EC50 [2] | EC50 [3] | GI50 [4] | Compound | GI50 [5] | other results
1700 nM | > 10000 nM | 590 nM |  | Cc1cc(-c2noc(-c3sccc3Cl)n2)ccc1Cl |  | 
1200 nM | > 10000 nM | 440 nM | 190 nM | Clc1ccc(-c2noc(-c3sccc3Cl)n2)cc1 | > 10000 nM | 
 | 82 nM | 160 nM |  | CC[C@]1(O)C[C@@H]2CN(CCc3c([nH]c4ccccc34)[C@@](C(=O)OC)(c3cc4c(cc3OC)N(C)[C@H]3[C@@](O)(C(=O)OC)[C@H](OC(C)=O)[C@]5(CC)C=CCN6CC[C@]43[C@@H]65)C2)C1 [VINBLASTINE] |  | 
 |  |  |  | O=P([O-])([O-])OCc1cc(Cl)ccc1-c1noc(-c2occc2Br)n1.[Na+].[Na+] |  | solubility [6]: 10000 µg/mL
4500 nM | 8600 nM | 1100 nM |  | Clc1ccc(-c2noc(-c3sccc3Cl)n2)c(CBr)c1 |  | 
 | 98 nM | 54 nM | 26 nM | CC(=O)O[C@H]1C(=O)[C@@]2(C)[C@H]([C@H](OC(=O)c3ccccc3)[C@]3(O)C[C@H](OC(=O)[C@H](O)[C@@H](NC(=O)c4ccccc4)c4ccccc4)C(C)=C1C3(C)C)[C@]1(OC(C)=O)CO[C@@H]1C[C@@H]2O [PACLITAXEL] | 23 nM | 
> 10000 nM | > 10000 nM |  |  | O=P(O)(O)OCc1cc(Cl)ccc1-c1noc(-c2occc2Br)n1 |  | 
2200 nM | 2300 nM |  |  | Clc1ccc(-c2noc(-c3occc3Br)n2)c(CBr)c1 |  | 
1400 nM | > 10000 nM | 370 nM |  | Clc1ccc(-c2noc(-c3sccc3Cl)n2)cc1Cl |  | 
3100 nM | > 10000 nM | 1100 nM |  | Nc1cc(Cl)ccc1-c1noc(-c2sccc2Cl)n1 |  | 
2400 nM | > 10000 nM | 580 nM |  | Nc1cc(-c2noc(-c3sccc3Cl)n2)ccc1Cl |  | 
> 10000 nM | > 10000 nM | > 10000 nM |  | CN(C)CCNc1cc(-c2noc(-c3sccc3Cl)n2)ccc1Cl |  | 
940 nM | > 10000 nM | 1200 nM | 660 nM | Cc1cc(Cl)cnc1-c1noc(-c2occc2Br)n1 | > 10000 nM | solubility [7]: 3800 µg/mL (≈ 11.2 mM)
2900 nM | > 10000 nM |  | 500 nM | OCc1cc(Cl)ccc1-c1noc(-c2occc2Br)n1 | > 10000 nM | solubility [7]: 4000 µg/mL (≈ 11.2 mM)
2100 nM | > 10000 nM | 540 nM |  | CN(C)c1cc(-c2noc(-c3sccc3Cl)n2)ccc1Cl |  | 
1100 nM | > 10000 nM | 710 nM | 130 nM | Cc1cc(Cl)ccc1-c1noc(-c2occc2Br)n1 | > 10000 nM | Activity [8]: < 10%; inhibition [9]: Active; solubility [10]: 4800 µg/mL (≈ 14.1 mM)
910 nM | > 10000 nM | 380 nM |  | Cc1cc(Cl)ccc1-c1noc(-c2sccc2Cl)n1 |  | 

Compound | EC50 [1] | EC50 [2] | EC50 [3] | GI50 [4] | GI50 [5] | other results
COc1cc2c(c(OC)c1OC)-c1ccc(OC)c(=O)cc1[C@@H](NC(C)=O)CC2 [COLCHICINE] |  |  | 180 nM | 140 nM | 63 nM | 
